We go through 2 molecules from ChEMBL document CHEMBL1134112, “[3H]MFZ 2-12: a novel radioligand for the dopamine transporter” (Bioorg Med Chem Lett, 2001).

For this experiment, the target named is Sodium-dependent dopamine transporter (Homo sapiens, UniProt Q01959). As to the kind of experiment: Ability to inhibit human dopamine uptake by the human dopamine transporter in EM4 cells stably infected with Flag HA-hDAT. The class given is functional, cell-based.

A word on the IC50: it is the concentration at which inhibition is half-maximal. A lower IC50 goes with greater potency in that assay.

Sequence of Sodium-dependent dopamine transporter (Q01959 whole entry): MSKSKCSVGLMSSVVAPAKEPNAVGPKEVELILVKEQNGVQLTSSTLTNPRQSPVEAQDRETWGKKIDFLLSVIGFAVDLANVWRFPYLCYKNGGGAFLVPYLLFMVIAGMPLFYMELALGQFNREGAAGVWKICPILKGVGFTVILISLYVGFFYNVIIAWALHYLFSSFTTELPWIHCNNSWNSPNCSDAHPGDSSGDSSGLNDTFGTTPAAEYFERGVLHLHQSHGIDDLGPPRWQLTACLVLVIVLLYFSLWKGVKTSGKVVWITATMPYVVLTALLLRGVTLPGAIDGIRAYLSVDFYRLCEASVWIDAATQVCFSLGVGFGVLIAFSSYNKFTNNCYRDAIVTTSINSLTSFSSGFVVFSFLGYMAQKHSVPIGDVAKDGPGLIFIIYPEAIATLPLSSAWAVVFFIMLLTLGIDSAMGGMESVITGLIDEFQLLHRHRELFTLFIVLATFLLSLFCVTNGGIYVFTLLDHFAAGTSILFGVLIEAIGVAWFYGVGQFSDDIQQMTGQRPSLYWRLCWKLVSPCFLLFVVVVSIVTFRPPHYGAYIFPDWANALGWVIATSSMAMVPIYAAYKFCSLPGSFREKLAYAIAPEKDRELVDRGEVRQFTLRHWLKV

`COC(=O)[C@@H]1C2CCC(C[C@@H]1c1ccc(Cl)c(Cl)c1)N2C` (some centres not stated): the IC50 amounted to 1.1 nM.

Molecule `COC(=O)[C@@H]1C2CCC(C[C@@H]1c1ccc(Cl)c(Cl)c1)N2` (some centres not stated) showed an IC50 of 1.4 nM.
